From patent publication US12583858B2 (Genentech, Inc., priority 2015, dated 2026)

Biological target: T1, TDO2 (Homo sapiens, UniProt P48775)
T1 construct: decreased levels of NFK in SW48 cells (high TDO expressing cells)
Assay: TDO2 cell assay (NFK GreenScreen, SW48 cells)
Type: cell-based
Settings: SW48 cells (high TDO expressing), 200 uM tryptophan, 24 hours; Table 3; read-out: TDO2 Cell Fluor EC50

T1 sequence (P48775 whole entry): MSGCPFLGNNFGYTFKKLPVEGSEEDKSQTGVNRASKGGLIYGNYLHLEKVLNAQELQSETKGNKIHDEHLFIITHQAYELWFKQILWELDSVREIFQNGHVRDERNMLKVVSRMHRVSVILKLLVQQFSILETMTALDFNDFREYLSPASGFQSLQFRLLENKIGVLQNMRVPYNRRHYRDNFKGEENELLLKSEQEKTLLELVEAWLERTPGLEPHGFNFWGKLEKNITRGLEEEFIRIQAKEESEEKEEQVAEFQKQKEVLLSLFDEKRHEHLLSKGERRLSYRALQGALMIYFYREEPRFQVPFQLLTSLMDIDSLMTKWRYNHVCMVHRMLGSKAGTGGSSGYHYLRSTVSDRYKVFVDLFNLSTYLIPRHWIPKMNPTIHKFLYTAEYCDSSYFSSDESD

For `CC(C)(C)OC(=O)N1CC2(CC(C3c4ccccc4-c4cncn43)C2O)C1` (single isomer, unassigned) [Example 41h, tert-butyl 7-hydroxy-6-(5H-imidazo[1,5-b]isoindol-5-yl)-2-azaspiro[3.3]heptane-2-carboxylate], which EC50 is on record?
Its EC50 is 750 nM.

For `OC1(C2c3ccccc3-c3cncn32)CCC1` (single isomer, unassigned) [Example 47a], which EC50 is on record?
Its EC50 is 350 nM.

Which EC50 does the source give for `OC1(C2c3ccccc3-c3cncn32)CCC1` (single isomer, unassigned) [Example 47b] here?
The EC50 was > 25000 nM.

With `OCC(O)C1c2ccccc2-c2cncn21` (single isomer, unassigned) [Example 49a, 1-(5H-imidazo[5,1-a]isoindol-5-yl)ethane-1,2-diol] as the molecule, how does the EC50 read?
The EC50 was 18000 nM.

With `OCC(O)C1c2ccccc2-c2cncn21` (single isomer, unassigned) [Example 49b, 1-(5H-imidazo[5,1-a]isoindol-5-yl)ethane-1,2-diol] as the molecule, how does the EC50 read?
Its EC50 is 19600 nM.

For `OCC(O)C1c2ccccc2-c2cncn21` (single isomer, unassigned) [Example 49c, 1-(5H-imidazo[5,1-a]isoindol-5-yl)ethane-1,2-diol], which EC50 is on record?
The EC50 was > 25000 nM.

With `OCC(O)C1c2ccccc2-c2cncn21` (single isomer, unassigned) [Example 49d, 1-(5H-imidazo[5,1-a]isoindol-5-yl)ethane-1,2-diol] as the molecule, how does the EC50 read?
Its EC50 is 1440 nM.

How did the EC50 turn out when `CC(C)C(O)C1c2ccccc2-c2cncn21` (single isomer, unassigned) [Example 51a] was run?
Its EC50 is > 25000 nM.

With `CC(C)C(O)C1c2ccccc2-c2cncn21` (single isomer, unassigned) [Example 51b] as the molecule, how does the EC50 read?
Its EC50 is > 25000 nM.

For `CC(C)C(O)C1c2ccccc2-c2cncn21` (single isomer, unassigned) [Example 51c], which EC50 is on record?
Its EC50 is 110 nM.

With `CC(C)C(O)C1c2ccccc2-c2cncn21` (single isomer, unassigned) [Example 51d] as the molecule, how does the EC50 read?
Its EC50 is 14000 nM.

`OC(C1CC1)C1c2ccccc2-c2cncn21` (single isomer, unassigned) [Example 52a] was tested. Which EC50 did it give?
The EC50 was 240 nM.

Which EC50 does the source give for `OC(C1CC1)C1c2ccccc2-c2cncn21` (single isomer, unassigned) [Example 52b] here?
Its EC50 is 23700 nM.

`OC(C1CC1)C1c2ccccc2-c2cncn21` (single isomer, unassigned) [Example 52c] was tested. Which EC50 did it give?
Its EC50 is > 25000 nM.

With `OC(C1CC1)C1c2ccccc2-c2cncn21` (single isomer, unassigned) [Example 52d] as the molecule, how does the EC50 read?
Its EC50 is 2000 nM.

With `OC1c2ccnn2CCC1C1c2ccccc2-c2cncn21` (single isomer, unassigned) [Example 56b] as the molecule, how does the EC50 read?
The EC50 was 370 nM.

With `OC1c2ccnn2CCC1C1c2ccccc2-c2cncn21` (single isomer, unassigned) [Example 56f] as the molecule, how does the EC50 read?
Its EC50 is 3800 nM.

`OC1c2ccnn2CCC1C1c2ccccc2-c2cncn21` (single isomer, unassigned) [Example 56g] was tested. Which EC50 did it give?
The EC50 was > 25000 nM.

For `OC1C(C2c3ccccc3-c3cncn32)CC12CCOCC2` (single isomer, unassigned) [Example 57b], which EC50 is on record?
Its EC50 is 5000 nM.

How did the EC50 turn out when `OC1C(C2c3ccccc3-c3cncn32)CC12CCOCC2` (single isomer, unassigned) [Example 57c] was run?
The EC50 was 400 nM.

Which EC50 does the source give for `OC1C(C2c3ccccc3-c3cncn32)CC12CCOCC2` (single isomer, unassigned) [Example 57d] here?
Its EC50 is > 25000 nM.

Which EC50 does the source give for `OC1C(C2c3ccccc3-c3cncn32)CC12CCOCC2` (single isomer, unassigned) [Example 57e] here?
The EC50 was 77 nM.

`OC1C(C2c3ccccc3-c3cncn32)CC12CCOCC2` (single isomer, unassigned) [Example 57f] was tested. Which EC50 did it give?
Its EC50 is 730 nM.

How did the EC50 turn out when `OC1C(C2c3ccccc3-c3cncn32)CC12CCOCC2` (single isomer, unassigned) [Example 57g] was run?
Its EC50 is 210 nM.

`OC1C(C2c3ccccc3-c3cncn32)CC12CCOCC2` (single isomer, unassigned) [Example 57h] was tested. Which EC50 did it give?
Its EC50 is > 25000 nM.

`N#CCN1CCC(O)C(C2c3ccccc3-c3cncn32)C1` (single isomer, unassigned) [Example 58a] was tested. Which EC50 did it give?
The EC50 was 360 nM.

`N#CCN1CCC(O)C(C2c3ccccc3-c3cncn32)C1` (single isomer, unassigned) [Example 58b] was tested. Which EC50 did it give?
Its EC50 is > 25000 nM.

How did the EC50 turn out when `N#CCN1CCC(O)C(C2c3ccccc3-c3cncn32)C1` (single isomer, unassigned) [Example 58c] was run?
Its EC50 is 20000 nM.

With `N#CCN1CCC(O)C(C2c3ccccc3-c3cncn32)C1` (single isomer, unassigned) [Example 58d] as the molecule, how does the EC50 read?
The EC50 was > 25000 nM.

How did the EC50 turn out when `Cc1cc2c(cn1)C(O)C(C1c3ccccc3-c3cncn31)C2` (single isomer, unassigned) [Example 59c] was run?
Its EC50 is 1600 nM.

How did the EC50 turn out when `Cc1cc2c(cn1)C(O)C(C1c3ccccc3-c3cncn31)C2` (single isomer, unassigned) [Example 59d] was run?
The EC50 was > 25000 nM.

For `NC(=O)c1ccc2c(c1)CCC(C1c3ccccc3-c3cncn31)C2O` (single isomer, unassigned) [Example 60a], which EC50 is on record?
The EC50 was 480 nM.

`NC(=O)c1ccc2c(c1)CCC(C1c3ccccc3-c3cncn31)C2O` (single isomer, unassigned) [Example 60b] was tested. Which EC50 did it give?
Its EC50 is 4100 nM.

For `NC(=O)c1ccc2c(c1)CCC(C1c3ccccc3-c3cncn31)C2O` (single isomer, unassigned) [Example 60d], which EC50 is on record?
Its EC50 is 740 nM.

Which EC50 does the source give for `CC1(O)CCOCC1C1c2ccccc2-c2cncn21` (single isomer, unassigned) [Example 61a] here?
The EC50 was 570 nM.

For `CC1(O)CCOCC1C1c2ccccc2-c2cncn21` (single isomer, unassigned) [Example 61b], which EC50 is on record?
Its EC50 is 2600 nM.

How did the EC50 turn out when `CC1(O)CCOCC1C1c2ccccc2-c2cncn21` (single isomer, unassigned) [Example 61c] was run?
Its EC50 is 9100 nM.

`CC1(O)CCOCC1C1c2ccccc2-c2cncn21` (single isomer, unassigned) [Example 61d] was tested. Which EC50 did it give?
The EC50 was 21000 nM.

Which EC50 does the source give for `N#Cc1ccc2c(c1)CCC(C1c3ccccc3-c3cncn31)C2O` (single isomer, unassigned) [Example 62a] here?
The EC50 was 10000 nM.

`N#Cc1ccc2c(c1)CCC(C1c3ccccc3-c3cncn31)C2O` (single isomer, unassigned) [Example 62b] was tested. Which EC50 did it give?
Its EC50 is 310 nM.

`N#Cc1ccc2c(c1)CCC(C1c3ccccc3-c3cncn31)C2O` (single isomer, unassigned) [Example 62c] was tested. Which EC50 did it give?
The EC50 was 6600 nM.

How did the EC50 turn out when `N#Cc1ccc2c(c1)CCC(C1c3ccccc3-c3cncn31)C2O` (single isomer, unassigned) [Example 62d] was run?
The EC50 was 82 nM.

For `N#Cc1ccc2c(c1)CCC(C1c3ccccc3-c3cncn31)C2O` (single isomer, unassigned) [Example 62e], which EC50 is on record?
The EC50 was 520 nM.

Which EC50 does the source give for `N#Cc1ccc2c(c1)CCC(C1c3ccccc3-c3cncn31)C2O` (single isomer, unassigned) [Example 62f] here?
The EC50 was 2500 nM.

For `N#Cc1ccc2c(c1)CCC(C1c3ccccc3-c3cncn31)C2O` (single isomer, unassigned) [Example 62g], which EC50 is on record?
The EC50 was 14000 nM.

How did the EC50 turn out when `OC1c2ncccc2CCC1C1c2ccccc2-c2cncn21` (single isomer, unassigned) [Example 63b] was run?
The EC50 was 19000 nM.

Which EC50 does the source give for `CS(=O)(=O)N1CC[C@@H]([C@@H]2c3ccccc3-c3cncn32)[C@H](O)C1` (single isomer, unassigned) [Example 64b] here?
Its EC50 is 87 nM.

`CS(=O)(=O)N1CC[C@@H]([C@H]2c3ccccc3-c3cncn32)[C@H](O)C1` (single isomer, unassigned) [Example 64d] was tested. Which EC50 did it give?
Its EC50 is 2500 nM.

With `CC1(C)COCC(C2c3ccccc3-c3cncn32)C1O` (single isomer, unassigned) [Example 66b] as the molecule, how does the EC50 read?
The EC50 was 190 nM.

For `CC1(C)COCC(C2c3ccccc3-c3cncn32)C1O` (single isomer, unassigned) [Example 66c], which EC50 is on record?
The EC50 was 4800 nM.

For `CC1(C)COCC(C2c3ccccc3-c3cncn32)C1O` (single isomer, unassigned) [Example 66d], which EC50 is on record?
Its EC50 is 2000 nM.

Which EC50 does the source give for `CC1(C)COCC(C2c3ccccc3-c3cncn32)C1O` (single isomer, unassigned) [Example 66f] here?
The EC50 was 160 nM.

`CC1(C)COCC(C2c3ccccc3-c3cncn32)C1O` (single isomer, unassigned) [Example 66g] was tested. Which EC50 did it give?
The EC50 was 71 nM.

With `OC1CC2(CCC2)C1C1c2ccccc2-c2cncn21` (single isomer, unassigned) [Example 67a] as the molecule, how does the EC50 read?
Its EC50 is 1200 nM.

For `OC1CC2(CCC2)C1C1c2ccccc2-c2cncn21` (single isomer, unassigned) [Example 67b], which EC50 is on record?
Its EC50 is > 25000 nM.

With `OC1CC2(CCC2)C1C1c2ccccc2-c2cncn21` (single isomer, unassigned) [Example 67c] as the molecule, how does the EC50 read?
Its EC50 is 1100 nM.

`OC1CC2(CCC2)C1C1c2ccccc2-c2cncn21` (single isomer, unassigned) [Example 67d] was tested. Which EC50 did it give?
Its EC50 is 240 nM.

How did the EC50 turn out when `OC1CC2(CCC2)C1C1c2ccccc2-c2cncn21` (single isomer, unassigned) [Example 67e] was run?
Its EC50 is 44 nM.

Which EC50 does the source give for `OC1CC2(CCC2)C1C1c2ccccc2-c2cncn21` (single isomer, unassigned) [Example 67f] here?
The EC50 was 46 nM.

`OC1CC2(CCC2)C1C1c2ccccc2-c2cncn21` (single isomer, unassigned) [Example 67g] was tested. Which EC50 did it give?
The EC50 was 2400 nM.

How did the EC50 turn out when `OC1CC2(CCC2)C1C1c2ccccc2-c2cncn21` (single isomer, unassigned) [Example 67h] was run?
The EC50 was 16000 nM.

With `OC1C(C2c3ccccc3-c3cncn32)CCC12CCOCC2` (single isomer, unassigned) [Example 68b] as the molecule, how does the EC50 read?
The EC50 was 7400 nM.

With `OC1C(C2c3ccccc3-c3cncn32)CCC12CCOCC2` (single isomer, unassigned) [Example 68c] as the molecule, how does the EC50 read?
The EC50 was > 25000 nM.

With `OC1C(C2c3ccccc3-c3cncn32)CCC12CCOCC2` (single isomer, unassigned) [Example 68d] as the molecule, how does the EC50 read?
The EC50 was > 25000 nM.

With `OC1C(C2c3ccccc3-c3cncn32)CCC12CCOCC2` (single isomer, unassigned) [Example 68e] as the molecule, how does the EC50 read?
Its EC50 is 270 nM.

Which EC50 does the source give for `OC1C(C2c3ccccc3-c3cncn32)CCC12CCOCC2` (single isomer, unassigned) [Example 68f] here?
The EC50 was 120 nM.

For `OC1C(C2c3ccccc3-c3cncn32)CCC12CCOCC2` (single isomer, unassigned) [Example 68g], which EC50 is on record?
Its EC50 is > 25000 nM.

For `OC1C(C2c3ccccc3-c3cncn32)CCC12CCOCC2` (single isomer, unassigned) [Example 68h], which EC50 is on record?
Its EC50 is > 25000 nM.

`OC1COCCC1C1c2c(Cl)cccc2-c2cncn21` (single isomer, unassigned) [Example 69-1a] was tested. Which EC50 did it give?
The EC50 was > 25000 nM.
